The values that follow come from the NIST ThermoML archive (doi:10.1016/j.jct.2006.03.018).

The structures appear in SMILES notation. ± gives the expanded uncertainty stated by the source.

Broadly, the mass density is mass per unit of volume. In general, speed of sound refers to the propagation velocity of pressure waves in the medium. As a reminder, the viscosity is the resistance of a fluid to flow. One may read the refractive index as the speed of light in vacuum divided by its phase velocity in the sample.

Test in the first series: not given
The note with it: 298.15 K; 101 kPa; Liquid.
With `CC(C)O` [propan-2-ol], the mass density stood at 781.36 ± 3.8 kg/m3, the speed of sound is on record as 1141 ± 41 m/s and the viscosity was determined as 2.042 ± 0.24 mPa·s.
As for `CCO` [ethanol], the mass density is recorded as 785.91 ± 3.7 kg/m3, the speed of sound was determined as 1161 ± 82 m/s and the viscosity is 1.073 ± 0.14 mPa·s.
For `CCCO` [propan-1-ol], the mass density was 799.96 ± 3.5 kg/m3, the speed of sound is 1206 ± 42 m/s and the viscosity stood at 1.792 ± 0.21 mPa·s.
`CCCCCO` [pentan-1-ol]: the mass density stood at 810.92 ± 3.5 kg/m3, the speed of sound turned out to be 1286 ± 44 m/s and the viscosity worked out at 3.403 ± 0.39 mPa·s.
Take `CCCCO` [butan-1-ol]: the mass density is 806.12 ± 14 kg/m3, the speed of sound came to 1246 ± 43 m/s and the viscosity is given as 2.585 ± 0.3 mPa·s.
Turning to `COc1ccccc1` [anisole], the mass density came to 989.15 ± 1.6 kg/m3, the speed of sound is 1412 ± 95 m/s and the viscosity worked out at 0.988 ± 0.13 mPa·s.

The same series, now with this note: 303.15 K; 101 kPa; Liquid.
Consider `CC(C)O` [propan-2-ol], for which the mass density is 777.09 ± 3.8 kg/m3 and the viscosity worked out at 1.755 ± 0.21 mPa·s.
For the compound `CCO` [ethanol], the mass density amounted to 781.6 ± 3.7 kg/m3 and the viscosity is listed as 0.971 ± 0.12 mPa·s.
As for `CCCO` [propan-1-ol], the mass density worked out at 795.93 ± 3.6 kg/m3 and the viscosity is on record as 1.706 ± 0.2 mPa·s.
Regarding `CCCCCO` [pentan-1-ol], the mass density turned out to be 807.23 ± 3.5 kg/m3 and the viscosity worked out at 2.959 ± 0.34 mPa·s.
As for `CCCCO` [butan-1-ol], the mass density is 802.28 ± 14 kg/m3 and the viscosity was found to be 2.284 ± 0.27 mPa·s.
Consider `COc1ccccc1` [anisole], for which the mass density amounted to 984.45 ± 1.6 kg/m3 and the viscosity stood at 0.913 ± 0.12 mPa·s.

Still in this series, the particulars now being: 308.15 K; 101 kPa; Liquid.
As for `CC(C)O` [propan-2-ol], the mass density amounted to 772.75 ± 3.9 kg/m3 and the viscosity is listed as 1.521 ± 0.18 mPa·s.
For `CCO` [ethanol] the same measures were 777.26 ± 3.8 kg/m3 and 0.889 ± 0.12 mPa·s.
Consider `CCCO` [propan-1-ol], for which the mass density is reported as 791.86 ± 3.6 kg/m3 and the viscosity was found to be 1.518 ± 0.18 mPa·s.
For `CCCCCO` [pentan-1-ol] the same measures were 803.52 ± 3.6 kg/m3 and 2.581 ± 0.3 mPa·s.
As for `CCCCO` [butan-1-ol], the mass density amounted to 798.41 ± 14 kg/m3 and the viscosity is on record as 1.981 ± 0.24 mPa·s.
The matching figures for `COc1ccccc1` [anisole]: 979.73 ± 1.7 kg/m3 and 0.854 ± 0.11 mPa·s.

Another series can be described thus: refractive index (Na D-line) (dimensionless). As to conditions: 298.15 K; 101.33 kPa; Liquid.
`CC(C)O` [propan-2-ol]: the refractive index is listed as 1.3745 ± 0.005.
The same measure, in the same setting: to `CCO` [ethanol] belongs 1.3591 ± 0.005; to `CCCO` [propan-1-ol], 1.3826 ± 0.005.
`CCCCCO` [pentan-1-ol]: the refractive index is reported as 1.4073 ± 0.005.
On to `CCCCO` [butan-1-ol], for which the refractive index was found to be 1.3968 ± 0.005.
For `COc1ccccc1` [anisole], the refractive index was determined as 1.5137 ± 0.005.

The series is the same for the next values; noted with them: 303.15 K; 101.33 kPa; Liquid.
Turning to `CC(C)O` [propan-2-ol], the refractive index came out at 1.3721 ± 0.005.
Regarding `CCO` [ethanol], the refractive index was 1.3572 ± 0.005.
For the compound `CCCO` [propan-1-ol], the refractive index was 1.3808 ± 0.005.
In the case of `CCCCCO` [pentan-1-ol], the refractive index is recorded as 1.405 ± 0.005.
On to `CCCCO` [butan-1-ol], for which the refractive index is 1.3944 ± 0.005.
As for `COc1ccccc1` [anisole], the refractive index is listed as 1.5113 ± 0.005.

Still in this series, the particulars now being: 308.15 K; 101.33 kPa; Liquid.
Consider `CC(C)O` [propan-2-ol], for which the refractive index was 1.3702 ± 0.005.
Regarding `CCO` [ethanol], the refractive index worked out at 1.355 ± 0.005.
Same read-out and setting: to `CCCO` [propan-1-ol] belongs 1.3782 ± 0.005; to `CCCCCO` [pentan-1-ol], 1.4032 ± 0.005; to `CCCCO` [butan-1-ol], 1.3923 ± 0.005.
Regarding `COc1ccccc1` [anisole], the refractive index is on record as 1.5088 ± 0.005.
